Laboratory results reported in the RepoRT retention time repository (doi:10.1021/acs.analchem.2c02893).

Assay: RP, Thermo Scientific Acclaim RSLC 120 C18, 100 × 2.1 mm, 2.2 µm, 30 °C, 0.2 mL/min, estimated dead time 1.1 min; A: 90% water + 10% methanol + 0.01% formic acid + 5 mM ammonium formate, pH 3.61; B: methanol + 0.01% formic acid + 5 mM ammonium formate, pH 3.61; gradient (min/%B) 0/1 1/1 2/39 13/99.9 15/99.9 15.1/1 20.1/1
Conditions: stereoisomer not certain

SMILES	LC retention time [min]
CC(C)(C)C(O)(CCc1ccc(Cl)cc1)Cn1cncn1 (stereo not drawn) [Tebuconazole]	10.9
CCCCn1cc(C(=O)c2cccc3ccc(C)cc23)c2ccccc21 [JWH-073-2-Methyl]	12.3
CCCCOc1cc(C(=O)OCCN(CC)CC)ccc1N [Oxybuprocaine]	5.94
COc1ccc(CCN(C)CCCC(C#N)(c2ccc(OC)c(OC)c2)C(C)C)cc1OC (stereo not drawn) [Verapamil]	7.03
CC(C)OC(=O)C(C)N(C(=O)c1ccccc1)c1ccc(F)c(Cl)c1 (stereo not drawn) [Flamprop-isopropyl]	10.8
CCN(CC)C(=O)C(Cl)=C(C)OP(=O)(OC)OC [Phosphamidon (Dimecron)]	6.27
COc1cc2c(cc1OC)CC(=O)N(CCCN(C)CC1Cc3cc(OC)c(OC)cc31)CC2 (stereo not drawn) [Ivabradine]	5.02
Cc1nc2n(c(=O)c1CCN1CCC(c3noc4cc(F)ccc34)CC1)CCCC2O (stereo not drawn) [Risperidone-9-OH (Paliperidone)]	5.33
CC(C(=O)O)N(C(=O)c1ccccc1)c1ccc(F)c(Cl)c1 (stereo not drawn) [Flamprop]	8.6
CCCC(C(=O)c1ccc(C)cc1)N1CCCC1 (stereo not drawn) [Pyrovalerone]	6.03
CCCCN(C)C(=O)Nc1ccc(Cl)c(Cl)c1 [Neburon]	10.7
CN1CCc2cccc3c2C1Cc1ccc(O)c(O)c1-3 (stereo not drawn) [Apomorphine]	4.28
Cc1cc(O)cc(C)c1S(C)=O (stereo not drawn) [Methiocarb-sulfoxide phenol]	4.63
CCNC(C)Cc1ccccc1 (stereo not drawn) [Amphetamine-N-Ethyl]	4.4
CCN(CC)CCNC(=O)c1cc(Cl)c(N)cc1OC [Metoclopramide]	4.36
CN1CCCCC1Cn1cc(C(=O)C2C(C)(C)C2(C)C)c2ccccc21 (stereo not drawn) [AB-005]	8.81
CC(C)OC(=O)Nc1ccc2nc(-c3cscn3)[nH]c2c1 [Cambendazol]	7.66
CP(=O)(O)CCC(N)C(=O)O (stereo not drawn) [Glufosinate]	1.44
CCNc1nc(NCC)[nH]c(=O)n1 [Simazine-2-hydroxy]	4.21
CN1CCOC(c2ccccc2)c2ccccc2C1 (stereo not drawn) [Nefopam]	5.67
CNCC(C)CN1c2ccccc2Sc2ccc(OC)cc21 (stereo not drawn) [Levomepromazine-Nor]	8.33

SMILES	LC retention time [min]
CCCCCn1cc(C(=O)c2ccc(F)c3ccccc23)c2ccccc21 [JWH-412]	12.8
CCc1cccc(C)c1N1C(=O)COCC1C (stereo not drawn) [Metolachlor-morpholinon]	7.89
CON=C(C(=O)OC)c1ccccc1COc1ccccc1C [Kresoxim-methyl]	10.8
CCC(=O)OC1(C(=O)SCF)C(C)CC2C3CC(F)C4=CC(=O)C=CC4(C)C3(F)C(O)CC21C (stereo not drawn) [Fluticasone propionate]	10.7
CC#CCn1c(N2CCCC(N)C2)nc2c1c(=O)n(Cc1nc(C)c3ccccc3n1)c(=O)n2C (stereo not drawn) [Linagliptin]	6.01
COc1ccc2c3c1OC1C(=O)CCC4(O)C(C2)N(C)CCC314 (stereo not drawn) [Oxycodone]	3.61
CCOP(=S)(OCC)Oc1ccc([N+](=O)[O-])cc1 [Parathion]	10.7
O=C(O)c1cc(Oc2ccc(Cl)cc2Cl)ccc1[N+](=O)[O-] [Bifenox acid]	8.71
CC(C)(C)C(NC(=O)c1nn(CCCCCF)c2ccccc12)C(N)=O (stereo not drawn) [ADB-PINACA-5F]	9.86
CC(C)(C)C(NC(=O)c1cn(CC2CCCCC2)c2ccccc12)C(N)=O (stereo not drawn) [ADB-CHMICA]	11.7
CC(C)CC1Nc2cc(Cl)c(S(N)(=O)=O)cc2S(=O)(=O)N1 (stereo not drawn) [Butizide]	6.14
CCn1nc(C(=O)O)c(=O)c2cc3c(cc21)OCO3 [Cinoxacin]	5.32
CN(CC=Cc1ccccc1)Cc1cccc2ccccc12 [Naftifine]	8.52
O=C(Oc1cccc2cccnc12)c1cn(CC2CCCCC2)c2ccccc12 [BB-22]	12.4
CCOC(=O)C1=CC(OC(CC)CC)C(NC(C)=O)C(N)C1 (stereo not drawn) [Oseltamivir]	6.76
CCC1OC(=O)C(C)C(OC2CC(C)(OC)C(O)C(C)O2)C(C)C(OC2OC(C)CC(N(C)C)C2O)C(C)(OC)CC(C)C(=O)C(C)C(O)C1(C)O (stereo not drawn) [Clarithromycin]	9.18
O=C(Oc1cccc2cccnc12)c1nn(CCCCCF)c2ccccc12 [NPB-22-5F]	10.3
Cn1ncc(N)c(Cl)c1=O [Chloridazone-methyl-desphenyl]	3.53
CNC(=O)N(C)c1nnc(C(C)(C)C)s1 [Tebuthiuron]	7.25
Cc1occc1C(=O)Nc1ccccc1 [Fenfuram]	7.59
CC(Cc1ccccc1)NCc1ccccc1Cl (stereo not drawn) [Clobenzorex]	6.82

SMILES	LC retention time [min]
CCOc1cc(Oc2ccc(C(F)(F)F)cc2Cl)ccc1[N+](=O)[O-] [Oxyfluorfen]	12.1
O=C(O)c1cc(N=Nc2ccc(O)c(C(=O)O)c2)ccc1O [Olsalazine]	5.66
NC(=O)CS(=O)C(c1ccccc1)c1ccccc1 (stereo not drawn) [Modafinil]	6.76
CN1CCC(=C2c3ccccc3CCc3cccnc32)CC1 [Azatadine]	5.99
CC1CC(C)C(=O)C(C(O)CC2CC(=O)NC(=O)C2)C1 (stereo not drawn) [Cycloheximide]	5.99
COC(=O)C1=C(C)NC(C)=C(C(=O)OC)C1c1ccccc1[N+](=O)[O-] [Nifedipine]	8.31
CCCCC1C(=O)N(c2ccccc2)N(c2ccccc2)C1=O [Phenylbutazone]	8.98
CC(C)(C)C(=O)C(Oc1ccc(Cl)cc1)n1cncn1 (stereo not drawn) [Triadimefon]	9.68
CCNc1nc(NC(C)CC)nc(OC)n1 (stereo not drawn) [Secbumeton]	8.79
Fc1ccc(C2CCNCC2COc2ccc3c(c2)OCO3)cc1 (stereo not drawn) [Paroxetine]	7.87
CCCCC(O)(Cn1cncn1)c1ccc(Cl)cc1Cl (stereo not drawn) [Hexaconazole]	11.2
CCN(CC)C(=O)c1cccnc1 [Nikethamide]	4.64
COc1ccccc1CC(=O)c1cn(CCC2CCCCC2)c2ccccc12 [RCS-8]	13
O=C(O)c1cn(-c2ccc(F)cc2)c2cc(N3CCNCC3)c(F)cc2c1=O [Sarafloxacin]	4.83
CNC1C(C)OC(OC2C(C)OC(OC3C(C)=CCC4CC(CC5(C=CC(C)C(C(C)C)O5)O4)OC(=O)C4C=C(C)C(O)C5OCC(=CC=CC3C)C45O)CC2OC)CC1OC (stereo not drawn) [Emamectin B1b]	12
CC(C)C(NC(=O)c1nn(CC2CCCCC2)c2ccccc12)C(N)=O (stereo not drawn) [AB-CHMINACA]	11.3
CNC(=O)Oc1cc(C)cc(C)c1 [XMC (Group of peaks!)]	7.78
CN1C(=O)CN=C(C2=CCCCC2)c2cc(Cl)ccc21 [Tetrazepam]	10.5
CC(C)(C)NCC(O)c1ccccc1Cl (stereo not drawn) [Tulobuterol]	5.17
COP(=O)(OC)Oc1ccc(SC)c(C)c1 [Fenthion-oxon]	8.82
CNC(=O)Oc1ccccc1OC(C)C [Propoxur]	6.94
